Here are results for 22 molecules from patent US9067871B2, “Aminotetraline derivatives, pharmaceutical compositions containing them, and their use in therapy” (ABBVIE DEUTSCHLAND GMBH & CO KG, priority 2009, dated 2015).

The assay has as its target human GlyT1c transporter (Homo sapiens (Human), UniProt P48067). Put plainly: Radioligand binding assay using recombinant CHO cell membranes expressing human GlyT1. Particulars: human GlyT1c-expressing CHO cell membranes, read-out: radioligand binding Kiapp. The source says: 2. Radioligand binding assays using recombinant CHO cell membranes expressing human GlyT1: […]

Molecules are shown by their SMILES. Where a name gives a salt, the structure may show the parent alone. Read-outs that look alike come from different tables or passages of the source.

Chain of human GlyT1c transporter (P48067 whole entry): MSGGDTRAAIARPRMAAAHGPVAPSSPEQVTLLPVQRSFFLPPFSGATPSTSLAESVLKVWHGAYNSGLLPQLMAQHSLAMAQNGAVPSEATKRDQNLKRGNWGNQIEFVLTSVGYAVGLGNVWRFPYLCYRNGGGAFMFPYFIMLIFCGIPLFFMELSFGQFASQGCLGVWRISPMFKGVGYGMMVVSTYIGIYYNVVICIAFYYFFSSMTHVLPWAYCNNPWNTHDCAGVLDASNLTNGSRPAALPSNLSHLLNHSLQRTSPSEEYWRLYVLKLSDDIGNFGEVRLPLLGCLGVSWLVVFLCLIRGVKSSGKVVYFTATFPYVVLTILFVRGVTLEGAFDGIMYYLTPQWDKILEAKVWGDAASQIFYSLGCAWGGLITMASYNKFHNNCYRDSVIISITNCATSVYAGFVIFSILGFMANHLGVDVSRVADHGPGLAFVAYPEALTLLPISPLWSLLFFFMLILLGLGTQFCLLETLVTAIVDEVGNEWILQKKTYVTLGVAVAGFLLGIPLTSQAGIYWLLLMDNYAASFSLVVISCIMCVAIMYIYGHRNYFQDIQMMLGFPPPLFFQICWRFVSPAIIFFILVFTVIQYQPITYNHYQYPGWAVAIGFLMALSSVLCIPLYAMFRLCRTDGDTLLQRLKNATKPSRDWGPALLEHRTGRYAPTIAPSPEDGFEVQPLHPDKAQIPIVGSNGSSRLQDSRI

For the molecule `O=S(=O)(NCc1ccc2c(c1)C(Cc1ccccc1)C(N1CCC1)CC2)c1ccccn1` (single isomer, unassigned; enantiomer 1) [Example 253, Enantiomer 1 of N-{[7-(azetidin-1-yl)-8-benzyl-5,6,7,8-tetrahydronaphthalen-2-yl]methyl}pyridine-2-sulfonamide], the Ki was no more than 1000 nM. Still for that read-out and setting: in the case of `CN(CCOc1ccc2c(c1)C(Cc1ccccc1)C(N1CCCC1)CC2)S(=O)(=O)c1cn(C)cn1` (stereo not shown) [Example 101, 1-Methyl-1H-imidazole-4-sulfonic acid [2-(8-benzyl-7-pyrrolidin-1-yl-5,6,7,8-tetrahydronaphthalen-2-yloxy)-ethyl]-methyl-amide hydrochloride] it was no more than 100 nM; in that of `O=S(=O)(CC1CC1)NCCOc1ccc2c(c1)C(Cc1cccc(Cl)c1)C(N1CCCC1)CC2` (stereo not shown) [Example 317, N-{2-[8-(3-Chloro-benzyl)-7-pyrrolidin-1-yl-5,6,7,8-tetrahydro-naphthalen-2-yloxy]-ethyl}-C-cyclopropyl-methanesulfonamide hydrochloride], no more than 100 nM; in that of `CC(C)NC1CCc2ccc(OCCNS(=O)(=O)c3cn(C)cn3)cc2C1Cc1cccc(C#N)c1` (stereo not shown) [Example 154, N-(2-{[8-(3-Cyanobenzyl)-7-(propan-2-ylamino)-5,6,7,8-tetrahydronaphthalen-2-yl]oxy}ethyl)-1-methyl-1H-imidazole-4-sulfonamide hydrochloride], no more than 100 nM.

As for `Cn1cc(S(=O)(=O)NCCOc2ccc3c(c2)C(Cc2ccccc2)C(N2CCC2)CC3)cn1` (stereo not shown) [Example 324, 1-Methyl-1H-pyrazole-4-sulfonic acid [2-(7-azetidin-1-yl-8-benzyl-5,6,7,8-tetrahydronaphthalen-2-yloxy)-ethyl]amide hydrochloride], the Ki is no more than 10 nM. On the same count and under the same terms, in the case of `CN(CCOc1ccc2c(c1)C(Cc1ccccc1)C(N1CCCC1)CC2)S(=O)(=O)CC1CC1` (stereo not shown) [Example 127, N-(2-{[8-Benzyl-7-(pyrrolidin-1-yl)-5,6,7,8-tetrahydronaphthalen-2-yl]oxy}ethyl)-1-cyclopropyl-N-methylmethanesulfonamide hydrochloride] it was no more than 100 nM.

Take `O=S(=O)(CC1CC1)NCCOc1ccc2c(c1)C(Cc1cc(F)cc(Cl)c1)C(N1CCC1)CC2` (stereo not shown) [Example 159, N-(2-{[7-(Azetidin-1-yl)-8-(3-chloro-5-fluorobenzyl)-5,6,7,8-tetrahydronaphthalen-2-yl]oxy}ethyl)-1-cyclopropylmethanesulfonamide (2E)-but-2-enedioate]: the Ki is no more than 100 nM. Same read-out and setting: in the case of `CCCS(=O)(=O)N(CCOc1ccc2c(c1)C(Cc1ccccc1)C(NC(=O)OCC)CC2)C1CC1` (stereo not shown) [Example 280] it was no more than 10000 nM. The same measure, in the same setting: in the case of `CCCS(=O)(=O)NCCOc1ccc2c(c1)C(Cc1ccccc1F)C(NC)CC2` (stereo not shown) [Example 311, Propane-1-sulfonic acid {2-[8-(2-fluoro-benzyl)-7-methylamino-5,6,7,8-tetrahydronaphthalen-2-yloxy]-ethyl}-amide hydrochloride] it was no more than 100 nM. With `CCCS(=O)(=O)NCCOc1ccc2c(c1)C(Cc1cccc(Cl)c1)C(N1CCCC1)CC2` (stereo not shown) [Example 323, Propane-1-sulfonic acid {2-[8-(3-chloro-benzyl)-7-pyrrolidin-1-yl-5,6,7,8-tetrahydronaphthalen-2-yloxy]-ethyl}-amide hydrochloride], the Ki is no more than 1000 nM. The same measure, in the same setting: in the case of `CC(=O)NC1CCc2ccc(CCCNS(=O)(=O)CC3CC3)cc2C1Cc1ccccc1` (stereo not shown) [Example 216, N-[1-Benzyl-7-(3-{[(cyclopropylmethyl)sulfonyl]amino}propyl)-1,2,3,4-tetrahydronaphthalen-2-yl]acetamide] it was no more than 10000 nM; in that of `NC1CCc2ccc(OCCNS(=O)(=O)CC3CC3)cc2C1Cc1ccc(F)c(F)c1` (stereo not shown) [Example 131, N-(2-{[7-Amino-8-(3,4-difluorobenzyl)-5,6,7,8-tetrahydronaphthalen-2-yl]oxy}ethyl)-1-cyclopropylmethanesulfonamide hydrochloride], no more than 100 nM. On to `CNC1CCc2ccc(OCCNS(=O)(=O)CC3CC3)cc2C1Cc1cc(F)cc(F)c1` (single isomer, unassigned; enantiomer 1) [Example 245, Enantiomer 1 of 1-cyclopropyl-N-(2-{[8-(3,5-difluorobenzyl)-7-(methylamino)-5,6,7,8-tetrahydronaphthalen-2-yl]oxy}ethyl)methanesulfonamide hydrochloride], for which the Ki was no more than 1000 nM.

`CN(CCOc1ccc2c(c1)C(Cc1ccccc1)C(N1CCCC1)CC2)S(=O)(=O)c1cnn(C)c1` (stereo not shown) [Example 111, 1-Methyl-1H-pyrazole-4-sulfonic acid [2-(8-benzyl-7-pyrrolidin-1-yl-5,6,7,8-tetrahydronaphthalen-2-yloxy)-ethyl]-methyl-amide hydrochloride]: the Ki is no more than 100 nM. As for `NC1CCc2ccc(OCCNS(=O)(=O)CC3CC3)cc2C1Cc1ccc(Cl)cc1` (stereo not shown) [Example 128, N-(2-{[7-Amino-8-(4-chlorobenzyl)-5,6,7,8-tetrahydronaphthalen-2-yl]oxy}ethyl)-1-cyclopropylmethanesulfonamide hydrochloride], the Ki was no more than 100 nM. The same measure, in the same setting: in the case of `CCCS(=O)(=O)NCCCc1ccc2c(c1)C(Cc1ccccc1Cl)C(N)CC2` (stereo not shown) [Example 211, N-{3-[7-Amino-8-(2-chlorobenzyl)-5,6,7,8-tetrahydronaphthalen-2-yl]propyl}propane-1-sulfonamide hydrochloride] it was no more than 1000 nM; in that of `CC(C)NC1CCc2ccc(OCCNS(=O)(=O)CC3CC3)cc2C1Cc1cccc(C#N)c1` (stereo not shown) [Example 156, N-(2-{[8-(3-Cyanobenzyl)-7-(propan-2-ylamino)-5,6,7,8-tetrahydronaphthalen-2-yl]oxy}ethyl)-1-cyclopropylmethanesulfonamide hydrochloride], no more than 1000 nM.

Consider `NC1CCc2ccc(CCCNS(=O)(=O)CC3CC3)cc2C1Cc1cccc(Cl)c1` (stereo not shown) [Example 296, N-{3-[7-Amino-8-(3-chloro-benzyl)-5,6,7,8-tetrahydro-naphthalen-2-yl]-propyl}-C-cyclopropyl-methanesulfonamide hydrochloride], for which the Ki was no more than 100 nM.

`NC1CCc2ccc(CNS(=O)(=O)CC3CC3)cc2C1Cc1ccc(F)c(F)c1` (stereo not shown) [Example 185, N-{[7-Amino-8-(3,4-difluorobenzyl)-5,6,7,8-tetrahydronaphthalen-2-yl]methyl}-1-cyclopropylmethanesulfonamide hydrochloride]: the Ki was no more than 1000 nM.

As to `Cn1cnc(S(=O)(=O)NCCOc2ccc3c(c2)C(Cc2ccccc2)C(N2CCCC2)CC3)c1` (single isomer, unassigned; (+)) [Example 118, (+)-N-(2-(8-benzyl-7-(pyrrolidin-1-yl)-5,6,7,8-tetrahydronaphthalen-2-yloxy)ethyl)-1-methyl-1H-imidazole-4-sulfonamide hydrochloride], where the note is “hydrochloride”, the Ki was no more than 100 nM. `NC1CCc2ccc(CCCNS(=O)(=O)CC3CC3)cc2C1Cc1ccccc1Cl` (stereo not shown) [Example 212, N-{3-[7-Amino-8-(2-chloro-benzyl)-5,6,7,8-tetrahydro-naphthalen-2-yl]-propyl}-C-cyclopropyl-methanesulfonamide hydrochloride]: the Ki is no more than 1000 nM. For the molecule `NC1CCc2ccc(OCCNS(=O)(=O)CC3CC3)cc2C1Cc1ccccc1Cl` (stereo not shown) [Example 295, N-{2-[7-Amino-8-(2-chloro-benzyl)-5,6,7,8-tetrahydro-naphthalen-2-yloxy]-ethyl}-C-cyclopropyl-methanesulfonamide hydrochloride], the Ki is no more than 1000 nM.
